Results taken from the NIST ThermoML archive (doi:10.1021/je060203o).
± gives the expanded uncertainty stated by the source.

Details: Liquid; for speed of sound: Pulse-echo method; for mass density: Vibrating tube method

CCCCCn1cc[n+](C)c1.O=S(=O)([N-]S(=O)(=O)C(F)(F)F)C(F)(F)F
Details | mass density [kg/m3] | speed of sound [m/s]
288.15 K, 500 kPa | – | 1255.5 ± 3.1
288.15 K, 3500 kPa | – | 1266 ± 3.1
288.15 K, 7000 kPa | – | 1278.1 ± 3.1
288.15 K, 10000 kPa | – | 1288.3 ± 3.1
288.15 K, 13500 kPa | – | 1299.9 ± 3.1
288.15 K, 16990 kPa | – | 1311.2 ± 3.1
288.15 K, 20000 kPa | – | 1320.7 ± 3.1
288.15 K, 30000 kPa | – | 1351.7 ± 3.2
288.15 K, 40000 kPa | – | 1380.9 ± 3.2
288.15 K, 50000 kPa | – | 1409 ± 3.2
288.15 K, 60000 kPa | – | 1435.6 ± 3.2
288.15 K, 70000 kPa | – | 1461.2 ± 3.2
288.15 K, 80000 kPa | – | 1486 ± 3.2
288.15 K, 90000 kPa | – | 1509.9 ± 3.2
288.15 K, 100000 kPa | – | 1533 ± 3.2
288.15 K, 112500 kPa | – | 1560.9 ± 3.2
288.15 K, 125000 kPa | – | 1587.9 ± 3.2
288.15 K, 137510 kPa | – | 1613.5 ± 3.2
288.15 K, 150000 kPa | – | 1637.8 ± 3.2
298.15 K, 100 kPa | 1404.45 ± 2.3 | –
298.15 K, 500 kPa | – | 1232.1 ± 3.1
298.15 K, 1830 kPa | 1405.67 ± 2.3 | –
298.15 K, 3500 kPa | – | 1242.7 ± 3.1
298.15 K, 7000 kPa | – | 1255 ± 3.1
298.15 K, 10000 kPa | – | 1265.5 ± 3.1
298.15 K, 10020 kPa | 1411.85 ± 2.5 | –
298.15 K, 13500 kPa | – | 1277.3 ± 3.1
298.15 K, 14980 kPa | 1415.45 ± 2.6 | –
298.15 K, 16990 kPa | – | 1288.9 ± 3.1
298.15 K, 19750 kPa | 1418.8 ± 2.8 | –
298.15 K, 20000 kPa | – | 1298.6 ± 3.1
298.15 K, 25860 kPa | 1422.94 ± 2.9 | –
298.15 K, 30000 kPa | – | 1330.5 ± 3.2
298.15 K, 31480 kPa | 1426.64 ± 3 | –
298.15 K, 37770 kPa | 1430.64 ± 3.2 | –
298.15 K, 40000 kPa | – | 1360.4 ± 3.2
298.15 K, 44170 kPa | 1434.54 ± 3.4 | –
298.15 K, 50000 kPa | – | 1388.9 ± 3.2
298.15 K, 50750 kPa | 1438.46 ± 3.5 | –
298.15 K, 59590 kPa | 1443.56 ± 3.8 | –
298.15 K, 60000 kPa | – | 1415.9 ± 3.2
298.15 K, 70000 kPa | – | 1441.9 ± 3.2
298.15 K, 80000 kPa | – | 1467 ± 3.2
298.15 K, 90000 kPa | – | 1491.1 ± 3.2
298.15 K, 100000 kPa | – | 1514.5 ± 3.2
298.15 K, 112500 kPa | – | 1542.6 ± 3.2
298.15 K, 125000 kPa | – | 1569.7 ± 3.2
298.15 K, 137510 kPa | – | 1595.7 ± 3.2
298.15 K, 150000 kPa | – | 1620.3 ± 3.2
299.15 K, 100 kPa | 1403.5 ± 2.3 | –
299.15 K, 1830 kPa | 1404.78 ± 2.3 | –
299.15 K, 10020 kPa | 1410.92 ± 2.5 | –
299.15 K, 14980 kPa | 1414.53 ± 2.6 | –
299.15 K, 19750 kPa | 1417.87 ± 2.8 | –
299.15 K, 25860 kPa | 1422.01 ± 2.9 | –
299.15 K, 31480 kPa | 1425.7 ± 3 | –
299.15 K, 37770 kPa | 1429.73 ± 3.2 | –
299.15 K, 44170 kPa | 1433.68 ± 3.4 | –
299.15 K, 50750 kPa | 1437.64 ± 3.5 | –
299.15 K, 59590 kPa | 1442.74 ± 3.8 | –
300.15 K, 100 kPa | 1402.62 ± 2.3 | –
300.15 K, 1830 kPa | 1403.85 ± 2.3 | –
300.15 K, 10020 kPa | 1410.01 ± 2.5 | –
300.15 K, 14980 kPa | 1413.57 ± 2.6 | –
300.15 K, 19750 kPa | 1416.91 ± 2.8 | –
300.15 K, 25860 kPa | 1421.12 ± 2.9 | –
300.15 K, 31480 kPa | 1424.81 ± 3 | –
300.15 K, 37770 kPa | 1428.87 ± 3.2 | –
300.15 K, 44170 kPa | 1432.84 ± 3.4 | –
300.15 K, 50750 kPa | 1436.83 ± 3.5 | –
300.15 K, 59590 kPa | 1441.99 ± 3.8 | –
301.15 K, 100 kPa | 1401.81 ± 2.3 | –
301.15 K, 1830 kPa | 1403.07 ± 2.3 | –
301.15 K, 10020 kPa | 1409.19 ± 2.5 | –
301.15 K, 14980 kPa | 1412.71 ± 2.6 | –
301.15 K, 19750 kPa | 1416.05 ± 2.8 | –
301.15 K, 25860 kPa | 1420.19 ± 2.9 | –
301.15 K, 31480 kPa | 1423.9 ± 3 | –
301.15 K, 37770 kPa | 1427.94 ± 3.2 | –
301.15 K, 44170 kPa | 1431.88 ± 3.4 | –
301.15 K, 50750 kPa | 1435.89 ± 3.5 | –
301.15 K, 59590 kPa | 1441.12 ± 3.7 | –
302.15 K, 100 kPa | 1400.89 ± 2.3 | –
302.15 K, 1830 kPa | 1402.16 ± 2.3 | –
302.15 K, 10020 kPa | 1408.28 ± 2.5 | –
302.15 K, 14980 kPa | 1411.85 ± 2.6 | –
302.15 K, 19750 kPa | 1415.2 ± 2.7 | –
302.15 K, 25860 kPa | 1419.36 ± 2.9 | –
302.15 K, 31480 kPa | 1423.08 ± 3 | –
302.15 K, 37770 kPa | 1427.17 ± 3.2 | –
302.15 K, 44170 kPa | 1431.17 ± 3.3 | –
302.15 K, 50750 kPa | 1435.18 ± 3.5 | –
302.15 K, 59590 kPa | 1440.42 ± 3.7 | –
303.15 K, 100 kPa | 1399.89 ± 2.3 | –
303.15 K, 1830 kPa | 1401.18 ± 2.3 | –
303.15 K, 10020 kPa | 1407.27 ± 2.5 | –
303.15 K, 14980 kPa | 1410.82 ± 2.6 | –
303.15 K, 19750 kPa | 1414.3 ± 2.7 | –
303.15 K, 25860 kPa | 1418.46 ± 2.9 | –
303.15 K, 31480 kPa | 1422.18 ± 3 | –
303.15 K, 37770 kPa | 1426.25 ± 3.2 | –
303.15 K, 44170 kPa | 1430.26 ± 3.3 | –
303.15 K, 50750 kPa | 1434.31 ± 3.5 | –
303.15 K, 59590 kPa | 1439.59 ± 3.7 | –
308.15 K, 100 kPa | 1395.34 ± 2.3 | –
308.15 K, 500 kPa | – | 1209.4 ± 3.1
308.15 K, 1830 kPa | 1396.59 ± 2.3 | –
308.15 K, 3500 kPa | – | 1220.4 ± 3.1
308.15 K, 7000 kPa | – | 1233.1 ± 3.1
308.15 K, 10000 kPa | – | 1243.7 ± 3.1
308.15 K, 10020 kPa | 1402.73 ± 2.5 | –
308.15 K, 13500 kPa | – | 1255.8 ± 3.1
308.15 K, 14980 kPa | 1406.29 ± 2.6 | –
308.15 K, 16990 kPa | – | 1267.5 ± 3.1
308.15 K, 19750 kPa | 1409.65 ± 2.7 | –
308.15 K, 20000 kPa | – | 1277.5 ± 3.1
308.15 K, 25860 kPa | 1413.83 ± 2.9 | –
308.15 K, 30000 kPa | – | 1310 ± 3.2
308.15 K, 31480 kPa | 1417.59 ± 3 | –
308.15 K, 37770 kPa | 1421.72 ± 3.1 | –
308.15 K, 40000 kPa | – | 1340.4 ± 3.2
308.15 K, 44170 kPa | 1425.82 ± 3.3 | –
308.15 K, 50000 kPa | – | 1369.1 ± 3.2
308.15 K, 50750 kPa | 1429.95 ± 3.5 | –
308.15 K, 59590 kPa | 1435.35 ± 3.7 | –
308.15 K, 60000 kPa | – | 1396.7 ± 3.2
308.15 K, 70000 kPa | – | 1423.2 ± 3.2
308.15 K, 80000 kPa | – | 1448.6 ± 3.2
308.15 K, 90000 kPa | – | 1473 ± 3.2
308.15 K, 100000 kPa | – | 1496.6 ± 3.2
308.15 K, 112500 kPa | – | 1525.2 ± 3.2
308.15 K, 125000 kPa | – | 1552.6 ± 3.2
308.15 K, 137510 kPa | – | 1579 ± 3.2
308.15 K, 150000 kPa | – | 1603.7 ± 3.2
313.15 K, 100 kPa | 1390.55 ± 2.2 | –
313.15 K, 1830 kPa | 1391.88 ± 2.3 | –
313.15 K, 10020 kPa | 1397.99 ± 2.5 | –
313.15 K, 14980 kPa | 1401.57 ± 2.6 | –
313.15 K, 19750 kPa | 1404.95 ± 2.7 | –
